Here are results for six molecules from patent US7407980B2, “Imidazolinylmethyl aralkylsulfonamides” (Roche Palo Alto LLC, priority 2002, dated 2008).

This assay deals with T1, alpha 1A adrenoceptors (Homo sapiens, UniProt P35348).
T1 construct: expressed in transfected cells; host or cells: CHO-K1 (clone 13)
T1 sequence (P35348 1-466): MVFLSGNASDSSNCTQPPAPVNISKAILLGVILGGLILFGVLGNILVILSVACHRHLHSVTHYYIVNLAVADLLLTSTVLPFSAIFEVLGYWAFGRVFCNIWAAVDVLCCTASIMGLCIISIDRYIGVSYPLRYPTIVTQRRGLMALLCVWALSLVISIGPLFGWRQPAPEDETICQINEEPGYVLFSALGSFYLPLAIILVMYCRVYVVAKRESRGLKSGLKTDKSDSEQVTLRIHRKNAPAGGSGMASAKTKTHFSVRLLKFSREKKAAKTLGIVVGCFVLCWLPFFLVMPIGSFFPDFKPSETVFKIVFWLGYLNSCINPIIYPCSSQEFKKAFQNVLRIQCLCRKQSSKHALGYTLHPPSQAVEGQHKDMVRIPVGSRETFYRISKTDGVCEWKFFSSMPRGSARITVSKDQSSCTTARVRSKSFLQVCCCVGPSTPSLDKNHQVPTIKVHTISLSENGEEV
The assay can be described thus: Functional assay: fluorescent dye (Fluo-3, FLIPR) determination of intracellular calcium in CHO-K1 cells expressing alpha 1A adrenoceptors (clone 13). In kind it is cell-based. To be noted: for EC50: CHO-K1 cells expressing alpha 1A adrenoceptor (clone 13), agonist, intracellular calcium, FLIPR, read-out: CHO-1A-13 pEC50 (converted); for CHO-1A-13 IA: intrinsic activity: maximum response relative to norepinephrine bitartrate (full agonist), CHO-K1 alpha 1A clone 13. Here is the method: The activity of potential α1A/L activity in vitro was determined by evaluating the potency and relative intrinsic activity (relative to norepinephrine or phenylephrine) of standard and novel compounds using fluorescent dye determination of intracellular calcium concentrations.
This example illustrates a functional assay which can be used to determine α1A/L agonist activity of Compounds of Formula I.
The activity of compounds of this invention in vitro was examined using fluorescent dye determination of intracellular calcium concentrations.
Chinese hamster ovary cells CHO-K1 expressing the alpha 1A adrenoceptors (clone 13) are washed 4 times (approx. 300 μL/well) with fluorometric imaging plate reader (FLIPR) buffer (Hank's buffered saline solution (HBSS), 2 mM CaCl2, 10 mM HEPES, 2.5 mM probenecid, 100 μM ascorbic acid), with a final volume of 150 μL/well. Cells are loaded with 50 μL/well of 8 μM Fluo-3 AM (Molecular Probes, Eugene, Oreg.), for a final concentration of 2 μM Fluo-3 AM. Cells are then incubated for 60 min at 37° C. Following dye loading, cells are washed 4 times (approx. 300 μL/well) with FLIPR buffer with a final volume of 150 μL/well.
Test compound, control compound and reference compound are run in quadruplicate, 8-point curves on each plate with a final assay concentration range of 10^−4 M to 10^−11 M for each compound. All compounds are dissolved in DMSO at 10 mM, and serially diluted in FLIPR buffer.
The assay plate is placed in the FLIPR incubation chamber and a baseline fluorescence measurement (excitation @ 488 nm and emission @ 510-570 nm) is obtained (15 sec interval). An experimental run is then commenced. The reaction is started with the addition of 50 μL/well (at 4× final concentration) of test, control, or reference compound solution from the agonist plate to the assay plate to all 96 wells simultaneously. Fluorescence is measured for 120 sec at 1 sec intervals. Then, a second addition of 5 μM ionomycin (50 μL/well from 5× concentration ionomycin plate) is added to the assay plate. Fluorescence is measured for 30 sec at 1 sec intervals. All experiments are conducted at room temperature.
For each assay plate, responses (increase in peak fluorescence) in each well following addition of agonist (test, control and reference) are determined. These responses may be expressed as raw CFU (Corrected Fluorescence Units), as a % maximum ionomycin response or other unit as determined by the investigator.
For test compound, control compound (Norepinephrine (NE) bitartrate), and reference compound, the concentration producing a 50% increase in control response (EC50) is determined using iterative curve-fitting methods. Excel spreadsheet or Kaleidagraph software are used to fit data to the general logistic function (E=B+Emax·A^nH/A^nH+EC50^nH), where B is the corrected baseline fluorescence units (defined as zero), A is the concentration of agonist added and nH is the Hill slope (constrained to unity). EC50 values and maxima (Emax) for each curve can be estimated objectively using this software.
In addition, the intrinsic activity (a) is determined. Intrinsic activity is defined as the maximum response to test agonist divided by the maximum response to a full agonist acting through the same receptor. For these experiments, the full agonist is defined as Norepinephrine (NE) bitartrate (control).
As used herein an agonist is a compound that elicits a maximal response greater of that of norepinephrine with a pEC50>5.5.

With `COc1cc(CC2=NCCN2)c(Cl)cc1NS(C)(=O)=O` [Compound 25, N-[5-Chloro-4-(4,5-dihydro-1H-imidazol-2-ylmethyl)-2-methoxy-phenyl]-methanesulfonamide], the EC50 was 75.9 nM and the “CHO-1A-13 IA” value worked out at 0.81.
As to `COc1cc(NS(C)(=O)=O)ccc1CC1=NCCN1` [Compound 6, N-[4-(4,5-Dihydro-1H-imidazol-2-ylmethyl)-3-methoxy-phenyl]-methanesulfonamide], the EC50 was 347 nM and the “CHO-1A-13 IA” value was 0.43.
Consider `COc1cc(NS(C)(=O)=O)c(OC)cc1CC1=NCCN1` [Compound 22, N-[4-(4,5-Dihydro-1H-imidazol-2-ylmethyl)-2,5-dimethoxy-phenyl]-methanesulfonamide], for which the EC50 was 692 nM and the “CHO-1A-13 IA” value turned out to be 0.27.
`COc1cc(CC2=NCCN2)ccc1NS(C)(=O)=O` [Compound 2, N-[4-(4,5-Dihydro-1H-imidazol-2-ylmethyl)-2-methoxy-phenyl]-methanesulfonamide]: the EC50 is 170 nM and the “CHO-1A-13 IA” value is listed as 0.92.
Taken in the same sequence, the figures for `CCS(=O)(=O)Nc1ccc(CC2=NCCN2)cc1Cl` [Compound 13, Ethanesulfonic acid [2-chloro-4-(4,5-dihydro-1H-imidazol-2-ylmethyl)-phenyl]-amide] were 661 nM and 0.16.
For the molecule `CS(=O)(=O)Nc1ccc(CC2=NCCN2)c2ccoc12` [Compound 8, N-[4-(4,5-Dihydro-1H-imidazol-2-ylmethyl)-benzofuran-7-yl]-methanesulfonamide], the EC50 is 302 nM and the “CHO-1A-13 IA” value turned out to be 0.65.
